In patent US6462205B1, “Method of preparing benzofurandione oxime derivatives” (Bayer Aktiengesellscahft, priority 1999, dated 2002) one finds logP data, which are given here for 2 compounds.

This data set is described as follows: log p of the isomers of 3-methoximino-2-oxo-2,3-dihydrobenzofuran. The format is physicochemical. The settings on record: product of Example 5, value per isomer.

The structures appear in SMILES notation. Where two headings read alike, the source gives them in different places.

For the compound `CON=C1C(=O)Oc2ccccc21` (single isomer, unassigned; isomer 3) [Z isomer, 3-Methoximino-2-oxo-2,3-dihydrobenzofuran], the logP is 2.14.
In the case of `CON=C1C(=O)Oc2ccccc21` (single isomer, unassigned; isomer 3) [E isomer, 3-Methoximino-2-oxo-2,3-dihydrobenzofuran], the logP (read-out: log p) amounted to 2.2.
